Converted amounts (≈) assume the structure as drawn. Numbered stars: 1 amine (or outer) side, 2 acyl side, 3 side chain; on linkers, the order of the positions; unused ones are H or OH. Bridge positions count the residues as written; N and C are the ends. Square brackets hold non-standard residues; d marks the D form. Peptide text beside a SMILES is read from it. ξ: configuration not given here. X1 = CCCCCCCCCCCC(O[C@H]1OC[C@H](O)[C@@H](O)[C@@H]1O)C(O)C(O)CC(CC(=O)[*:1])N[*:2]; X2 = CCCCCCCCCCCC(O)C(O)C(O)CC(CC(=O)[*:2])N[*:1]; Asn(3S-OH) = NC(=O)[C@@H](O)[C@H](N)C(=O)O; ξTyr(βOH) = NC(C(=O)O)C(O)c1ccc(O)cc1
Legend:
Test in all cases: Microtitre 2-fold serial dilution MIC assay
Assay type in all cases: cell-based
Saccharomyces cerevisiae = conditions: S. cerevisiae; 30° C., 4 days, turbidity
Method: Anti-fungal activity for the present compounds was determined using microtitre format. Microtitre plates (96 wells: rows A-H, columns 1-12) were filled by the following protocol to give 2-fold serial dilutions of each of Bk-1229 and Bk-1097. Samples of Bk-1229 and Bk-1097 were dissolved in 1/10-strength BHIB containing 0.1% (w/v) dimethylsulfoxide (DMSO). Aliquots (50 μL) of 1/10-strength BHIB containing 0.1 (w/v) % DMSO (pH 7.4) were added to all wells except those in column 1. The wells in column 1 received 100 μL of the solutions of Bk-1229 or Bk-1097 and 50 μL was removed and mixed with the medium in the second well. This process was repeated through well 11, at which point an aliquot (50 μL) was removed and discarded. Well 12 was the blank (positive growth) control, BHIB+DMSO only. The test microorganisms employed in this example were Saccharomyces cerevisiae, Candida albicans, and Aspergillus niger, which were obtained from the Virginia Tech Microbiology Culture Collection. Cells of S. cerevisiae and C. albicans were grown in sterile 1/10-strength Brain Heart Infusion Broth (BHIB) and incubated at 30° C. for 18 h. Cells were counted as colony forming units on 1/10-strength BHIB agar. Spore suspensions of A. niger were prepared from lawns of sporulating colonies on 1/10-strength BHIB agar. The number of spores was determined by counting spores microscopically in a Petroff-Hauser counting chamber. The resulting culture or spore suspensions were diluted to 10^5 cells or spores/mL. Following the preparation of the dilution series, 50 μL of microbial inocula (10^5/mL) were added to each well in a row. The concentration of Bk-1229 and Bk-1097 ranged from 50 to 0.05 μg/mL. After the plates were incubated at 30° C. for 4 days, measurement of minimal inhibitory concentration (MIC) results were read by comparing the turbidity (due to microbial growth) of each test well to the positive control wells. The measured MICs for each of burkholdines are summarized as follow: […]

Candida albicans = conditions: C. albicans; 30° C., 4 days, turbidity
Aspergillus niger = conditions: A. niger; 30° C., 4 days, turbidity

Row | Structure (SMILES) | MIC (Saccharomyces cerevisiae) | MIC (Candida albicans) | MIC (Aspergillus niger)
1 | C[C@@H]1[C@H](O)[C@@H](C)/C=C/C=C/C=C/C=C/C=C/C=C/C=C/[C@H](O[C@@H]2O[C@H](C)[C@@H](O)[C@H](N)[C@@H]2O)C[C@@H]2O[C@](O)(C[C@@H](O)C[C@@H](O)[C@H](O)CC[C@@H](O)C[C@@H](O)CC(=O)O[C@H]1C)C[C@H](O)[C@H]2C(=O)O [Amphetericin B, reference compound] | 25 mg/L (≈ 27.1 µM) | 25 mg/L (≈ 27.1 µM) | 25 mg/L (≈ 27.1 µM)
2 | CCCCCCCCCCCC(O)C(O)C(O)CC1CC(=O)N[C@H](CO)C(=O)NC(C(O)c2ccc(O)cc2)C(=O)N[C@H](CC(N)=O)C(=O)NCC(=O)N[C@@H](CC(N)=O)C(=O)N[C@@H](CO)C(=O)N[C@@H]([C@H](O)C(N)=O)C(=O)N1 (stereo partly drawn) [Bk-1097 (2), burkholdine 1097] (cyclo(GNS[Asn(3S-OH)][X2][dS][ξTyr(βOH)][dN])) | 1.6 mg/L (≈ 1.46 µM) | 12.5 mg/L (≈ 11.4 µM) | 1.6 mg/L (≈ 1.46 µM)
3 | CCCCCCCCCCCC(O[C@H]1OC[C@H](O)[C@@H](O)[C@@H]1O)C(O)C(O)CC1CC(=O)N[C@H](CO)C(=O)NC(C(O)c2ccc(O)cc2)C(=O)N[C@H](CC(N)=O)C(=O)NCC(=O)N[C@@H](CC(N)=O)C(=O)N[C@@H](CO)C(=O)N[C@@H]([C@H](O)C(N)=O)C(=O)N1 (stereo partly drawn) [Bk-1229 (1), burkholdine 1229] ([dS][ξTyr(βOH)][dN]GNS[Asn(3S-OH)]; linker N-C via X1) | 0.4 mg/L (≈ 0.325 µM) | 12.5 mg/L (≈ 10.2 µM) | 12.5 mg/L (≈ 10.2 µM)

Source: patent US9139616B2, “Isolation, identification, and uses of antifungal compounds” (priority 2010, dated 2015)
